Experimental data published in US10709709B2, “Substituted carbonucleoside derivatives useful as anticancer agents” (Pfizer Inc., priority 2016, dated 2020).

target: PRMT5/MEP50 protein complex (Homo sapiens (Human), UniProt O14744); assay: PRMT5 biochemical assay (3H-SAM methylation of H4(1-21) peptide, filter plate scintillation); conditions: 10 nM PRMT5/MEP50 complex, 200 nM H4(1-21) peptide, 1 uM SAM, 25 minute incubation at room temperature
Protocol: Biochemical Assay Methods
Compounds were solubilized in DMSO and serially diluted, using 3-fold dilutions, into 100% DMSO at a concentration 50-fold greater than the desired assay concentration. Following dilution, 1 ul was added to an empty 96-well microtiter plate. PRMT5/MEP50 protein complex was combined with H4(1-21) peptide ([…]) in PRMT5 assay buffer (50 mM Tris pH 8.5, 50 mM NaCl, 5 mM MgCl2, 1 mM EDTA, 1 mM TCEP) and 44 ul was added to the microtiter plate containing compound. S-Adenosyl-L-methionine (SAM) was prepared by combining ^3H labelled SAM with unlabelled SAM in PRMT5 assay buffer such that the final SAM concentration was 10 uM and the specific activity was 0.2 uCi/ul. The reaction was initiated by adding 5 ul of SAM stock to the microtiter plate. The final reaction conditions were 10 nM PRMT5/MEP50 complex, 200 nM peptide and 1 uM SAM. Following a 25 minute incubation at room temperature, the reaction was stopped with the addition of 100 uL of 20% TCA. The 3H-peptide product was captured using a 96-well filter plate (MSIPN4B, Millipore) and washed 5 times with PBS buffer. Scintillation fluid (100 ul) was added to the dried filter plate and counted in a liquid scintillation counter. IC50 values were determined by fitting the data to the standard 4-parameter dose response equation using Pfizer proprietary software.
Results for the biochemical assay of examples are summarized in Table 1, shown as IC50 values in μM.

PRMT5/MEP50 protein complex, sequence (O14744 other isoform, or with tags, fused parts or gaps): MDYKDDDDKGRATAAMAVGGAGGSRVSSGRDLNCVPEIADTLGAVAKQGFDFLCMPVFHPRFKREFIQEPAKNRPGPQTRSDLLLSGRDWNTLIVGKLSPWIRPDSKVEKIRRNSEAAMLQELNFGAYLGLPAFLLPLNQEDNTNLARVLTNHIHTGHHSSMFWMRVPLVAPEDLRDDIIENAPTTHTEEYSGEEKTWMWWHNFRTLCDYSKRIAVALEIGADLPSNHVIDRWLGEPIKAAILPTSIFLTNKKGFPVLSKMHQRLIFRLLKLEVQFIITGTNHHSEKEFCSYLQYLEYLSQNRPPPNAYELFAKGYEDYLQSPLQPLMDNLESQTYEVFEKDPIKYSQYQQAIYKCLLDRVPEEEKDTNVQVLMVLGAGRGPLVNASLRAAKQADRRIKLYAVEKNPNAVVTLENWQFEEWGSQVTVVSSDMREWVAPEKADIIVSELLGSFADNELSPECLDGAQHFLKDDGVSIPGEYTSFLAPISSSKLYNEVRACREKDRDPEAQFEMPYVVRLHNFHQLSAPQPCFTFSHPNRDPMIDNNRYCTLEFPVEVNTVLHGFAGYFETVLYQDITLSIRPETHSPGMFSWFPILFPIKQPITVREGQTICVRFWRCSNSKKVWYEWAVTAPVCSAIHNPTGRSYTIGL
PRMT5/MEP50 protein complex, sequence (Q9BQA1 whole entry partner): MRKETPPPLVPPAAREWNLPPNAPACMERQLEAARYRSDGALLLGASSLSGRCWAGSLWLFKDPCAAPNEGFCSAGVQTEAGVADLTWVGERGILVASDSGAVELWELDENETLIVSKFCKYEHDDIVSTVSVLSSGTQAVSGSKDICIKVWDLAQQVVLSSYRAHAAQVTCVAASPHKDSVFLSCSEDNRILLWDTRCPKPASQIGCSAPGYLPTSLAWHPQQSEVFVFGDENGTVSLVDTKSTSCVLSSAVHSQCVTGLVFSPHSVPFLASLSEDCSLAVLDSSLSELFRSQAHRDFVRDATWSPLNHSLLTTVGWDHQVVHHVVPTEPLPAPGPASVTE

Row | IC50 | Compound
1 | 20 nM | Cc1ncnc2c1ccn2[C@@H]1C[C@H](Oc2cccc3c2CN(C)CC3)[C@@H](O)[C@H]1O [Example 83, (1S,2S,3S,5R)-3-((2-methyl-1,2,3,4-tetrahydroisoquinolin-8-yl)oxy)-5-(4-methyl-7H-pyrrolo[2,3-d]pyrimidin-7-yl)cyclopentane-1,2-diol]
2 | 19 nM | Cc1ncc(O[C@H]2C[C@@H](n3ccc4c(C)ncnc43)[C@H](O)[C@@H]2O)c2c1CCNC2 [Example 96, (1S,2S,3S,5R)-3-((1-methyl-5,6,7,8-tetrahydro-2,6-naphthyridin-4-yl)oxy)-5-(4-methyl-7H-pyrrolo[2,3-d]pyrimidin-7-yl)cyclopentane-1,2-diol]
3 | 65 nM | Cc1ncnc2c1ccn2[C@@H]1C[C@H](Oc2cc(C(C)(C)O)cc3c2CNCC3)[C@@H](O)[C@H]1O [Example 97, (1S,2S,3S,5R)-3-((6-(2-hydroxypropan-2-yl)-1,2,3,4-tetrahydroisoquinolin-8-yl)oxy)-5-(4-methyl-7H-pyrrolo[2,3-d]pyrimidin-7-yl)cyclopentane-1,2-diol]
4 | 8 nM | Nc1ncnc2c1c(F)cn2[C@@H]1C[C@H](Oc2cccc3c2CNC3)[C@@H](O)[C@H]1O [Example 110, (1S,2S,3R,5S)-3-(4-amino-5-fluoro-7H-pyrrolo[2,3-d]pyrimidin-7-yl)-5-(2,3-dihydro-1H-isoindol-4-yloxy)cyclopentane-1,2-diol]
5 | 4 nM | CC(F)(F)c1cc2c(c(O[C@H]3C[C@@H](n4cc(F)c5c(N)ncnc54)[C@H](O)[C@@H]3O)c1)CNCC2 [Example 112, (1S,2S,3R,5S)-3-(4-amino-5-fluoro-7H-pyrrolo[2,3-d]pyrimidin-7-yl)-5-((6-(1,1-difluoroethyl)-1,2,3,4-tetrahydroisoquinolin-8-yl)oxy)cyclopentane-1,2-diol]
6 | 1 nM | Cc1cc(O[C@H]2C[C@@H](n3cc(F)c4c(N)ncnc43)[C@H](O)[C@@H]2O)c2c(c1F)CCNC2 [Example 113, (1S,2S,3R,5S)-3-(4-amino-5-fluoro-7H-pyrrolo[2,3-d]pyrimidin-7-yl)-5-((5-fluoro-6-methyl-1,2,3,4-tetahydroisoquinolin-8-yl)oxy)cyclopentane-1,2-diol]
7 | 147 nM | CN1Cc2cccc(O[C@H]3C[C@@H](n4cc(F)c5c(N)ncnc54)[C@H](O)[C@@H]3O)c2C1 [Example 115, (1S,2S,3R,5S)-3-(4-amino-5-fluoro-7H-pyrrolo[2,3-d]pyrimidin-7-yl)-5-[(2-methyl-2,3-dihydro-1H-isoindol-4-yl)oxy]cyclopentane-1,2-diol]
8 | 257 nM | CN1CCc2c(cccc2O[C@H]2C[C@@H](n3cc(F)c4c(N)ncnc43)[C@H](O)[C@@H]2O)C1 [Example 116, (1S,2S,3R,5S)-3-(4-amino-5-fluoro-7H-pyrrolo[2,3-d]pyrimidin-7-yl)-5-((2-methyl-1,2,3,4-tetrahydroisoquinolin-5-yl)oxy)cyclopentane-1,2-diol]
9 | 9 nM | Cc1cc2c(c(O[C@H]3C[C@@H](n4cc(F)c5cnc(C)nc54)[C@H](O)[C@@H]3O)c1)CNCC2 [Example 127, (1S,2S,3R,5S)-3-(5-fluoro-2-methyl-7H-pyrrolo[2,3-d]pyrimidin-7-yl)-5-((6-methyl-1,2,3,4-tetrahydroisoquinolin-8-yl)oxy)cyclopentane-1,2-diol]
10 | 10200 nM | Cc1ncnc2c1ccn2[C@@H]1C[C@H](Oc2ccc(F)cc2CO)[C@@H](O)[C@H]1O [Example 135, (1S,2S,3S,5R)-3-(4-fluoro-2-(hydroxymethyl)phenoxy)-5-(4-methyl-7H-pyrrolo[2,3-d]pyrimidin-7-yl)cyclopentane-1,2-diol]
11 | 11100 nM | Cc1ncnc2c1ccn2[C@@H]1C[C@H](Oc2ccc(F)cc2O)[C@@H](O)[C@H]1O [Example 136, (1S,2S,3S,5R)-3-(4-fluoro-2-hydroxyphenoxy)-5-(4-methyl-7H-pyrrolo[2,3-d]pyrimidin-7-yl)cyclopentane-1,2-diol]
12 | 123 nM | Cc1ncnc2c1ccn2[C@@H]1C[C@H](Oc2ccc(F)cc2[C@@H](C)N)[C@@H](O)[C@H]1O [Example 137, (1S,2S,3S,5R)-3-(2-((R)-1-aminoethyl)-4-fluorophenoxy)-5-(4-methyl-7H-pyrrolo[2,3-d]pyrimidin-7-yl)cyclopentane-1,2-diol]

The remaining lines, values behind:

Row | Compound | IC50
13 | Cc1ncnc2c1ccn2[C@@H]1C[C@H](Oc2ccc(F)cc2CN(C)C)[C@@H](O)[C@H]1O [Example 71, (1S,2S,3S,5R)-3-(2-((dimethylamino)methyl)-4-fluorophenoxy)-5-(4-methyl-7H-pyrrolo[2,3-d]pyrimidin-7-yl)cyclopentane-1,2-diol] | 69 nM
14 | CNCc1cc(F)ccc1O[C@H]1C[C@@H](n2ccc3c(C)ncnc32)[C@H](O)[C@@H]1O [Example 72, (1S,2S,3S,5R)-3-(4-fluoro-2-((methylamino)methyl)phenoxy)-5-(4-methyl-7H-pyrrolo[2,3-d]pyrimidin-7-yl)cyclopentane-1,2-diol] | 22 nM
15 | Cc1ncnc2c1ccn2[C@@H]1C[C@H](Oc2ccc(F)cc2)[C@@H](O)[C@H]1O [Example 73, (1S,2S,3S,5R)-3-(4-fluorophenoxy)-5-(4-methyl-7H-pyrrolo[2,3-d]pyrimidin-7-yl)cyclopentane-1,2-diol] | 6880 nM
16 | Cc1ncnc2c1ccn2[C@@H]1C[C@H](Oc2c(F)cccc2F)[C@@H](O)[C@H]1O [Example 74, (1S,2S,3S,5R)-3-(2,6-difluorophenoxy)-5-(4-methyl-7H-pyrrolo[2,3-d]pyrimidin-7-yl)cyclopentane-1,2-diol] | 63300 nM
17 | Cc1cc(F)ccc1O[C@H]1C[C@@H](n2ccc3c(C)ncnc32)[C@H](O)[C@@H]1O [Example 75, (1S,2S,3S,5R)-3-(4-fluoro-2-methylphenoxy)-5-(4-methyl-7H-pyrrolo[2,3-d]pyrimidin-7-yl)cyclopentane-1,2-diol] | 37800 nM
18 | Cc1ncnc2c1ccn2[C@H]1C[C@H](Oc2cccc3c2C(=O)NCC3)[C@@H](O)[C@H]1O [Example 76, 8-(((1S,2S,3S,4S)-2,3-dihydroxy-4-(4-methyl-7H-pyrrolo[2,3-d]pyrimidin-7-yl)cyclopentyl)oxy)-3,4-dihydroisoquinolin-1(2H)-one] | 144000 nM
19 | Cc1ncnc2c1ccn2C1C[C@H](Oc2cccc3c2CNC3)[C@@H](O)[C@H]1O (stereo partly drawn) [Example 79, (1S,2S,3S,5R)-3-(2,3-dihydro-1H-isoindol-4-yloxy)-5-(4-methyl-7H-pyrrolo[2;3-d]pyrimidin-7-yl)cyclopentane-1,2-diol] | 83 nM
20 | Cc1ncnc2c1ccn2[C@@H]1C[C@H](Oc2cccc3c2CCNC3)[C@@H](O)[C@H]1O [Example 80, (1S,2S,3R,5S)-3-(4-methyl-7H-pyrrolo[2,3-d]pyrimidin-7-yl)-5-((1,2,3,4-tetrahydroisoquinolin-5-yl)oxy)cyclopentane-1,2-diol] | 130 nM
21 | Cc1ncnc2c1ccn2[C@@H]1C[C@H](Oc2cccc3c2CCN(C)C3)[C@@H](O)[C@H]1O [Example 81, (1S,2S,3R,5S)-3-(4-methyl-7H-pyrrolo[2,3-d]pyrimidin-7-yl)-5-[(2-methyl-1,2,3,4-tetrahydroisoquinolin-5-yl)oxy]cyclopentane-1,2-diol] | 1670 nM
22 | Cc1ncnc2c1ccn2[C@@H]1C[C@H](Oc2cccc3c2CN(C)C3)[C@@H](O)[C@H]1O [Example 82, (1S,2S,3S,5R)-3-[(2-methyl-2,3-dihydro-1H-isoindol-4-yl)oxy]-5-(4-methyl-7H-pyrrolo[2,3-d]pyrimidin-7-yl)cyclopentane-1,2-diol] | 991 nM
